How the values were obtained:
Brain [1] = assay: Biodistribution in Sprague-Dawley rat brain at 11 uCi, iv measured 2 mins post compound dose; type: ADME, organism-based; conditions: in vivo
Bone [2] = assay: Biodistribution in Sprague-Dawley rat bone assessed as compound level per organ at 11 uCi, iv measured 60 mins post compound dose; type: ADME, organism-based, Bone element; conditions: in vivo, 1 h
Nucleic Acid [3] = assay: Ratio of drug level in hypothalamus to cerebellum in Sprague-Dawley rat at 11 uCi, iv measured 60 mins post compound dose; type: ADME, organism-based; conditions: in vivo, 1 h
Bone [4] = assay: Biodistribution in Sprague-Dawley rat bone assessed as compound level per organ at 11 uCi, iv measured 2 mins post compound dose; type: ADME, organism-based, Bone element; conditions: in vivo
Lung [5] = assay: Biodistribution in Sprague-Dawley rat lung at 11 uCi, iv measured 120 mins post compound dose; type: ADME, organism-based; conditions: in vivo, 2 h
Spleen [6] = assay: Biodistribution in Sprague-Dawley rat spleen assessed as compound level per organ at 11 uCi, iv measured 120 mins post compound dose; type: ADME, organism-based; conditions: in vivo, 2 h
Heart [7] = assay: Biodistribution in Sprague-Dawley rat heart at 11 uCi, iv measured 2 mins post compound dose; type: ADME, organism-based; conditions: in vivo
Heart [8] = assay: Biodistribution in Sprague-Dawley rat heart at 11 uCi, iv measured 30 mins post compound dose; type: ADME, organism-based; conditions: in vivo, 0.5 h
Nucleic Acid [9] = assay: Ratio of drug level in cortex to cerebellum in Sprague-Dawley rat at 11 uCi, iv measured 60 mins post compound dose; type: ADME, organism-based; conditions: in vivo, 1 h
Cerebellum [10] = assay: Biodistribution in Sprague-Dawley rat cerebellum at 11 uCi, iv measured 60 mins post compound dose; type: ADME, organism-based; conditions: in vivo, 1 h
Cortex = assay: Biodistribution in Sprague-Dawley rat cortex at 11 uCi, iv measured 2 mins post compound dose; type: ADME, organism-based; conditions: in vivo
Lung [11] = assay: Biodistribution in Sprague-Dawley rat lung assessed as compound level per organ at 11 uCi, iv measured 30 mins post compound dose; type: ADME, organism-based; conditions: in vivo, 0.5 h
Lung [12] = assay: Biodistribution in Sprague-Dawley rat lung assessed as compound level per organ at 11 uCi, iv measured 120 mins post compound dose; type: ADME, organism-based; conditions: in vivo, 2 h
Nucleic Acid [13] = assay: Ratio of drug level in hippocampus to cerebellum in Sprague-Dawley rat at 11 uCi, iv measured 60 mins post compound dose; type: ADME, organism-based; conditions: in vivo, 1 h
Bone [14] = assay: Biodistribution in Sprague-Dawley rat bone at 11 uCi, iv measured 120 mins post compound dose; type: ADME, organism-based, Bone element; conditions: in vivo, 2 h
Hippocampus [15] = assay: Biodistribution in Sprague-Dawley rat hippocampus at 11 uCi, iv measured 120 mins post compound dose; type: ADME, organism-based; conditions: in vivo, 2 h
Brain [16] = assay: Biodistribution in Sprague-Dawley rat rest of brain at 11 uCi, iv measured 60 mins post compound dose; type: ADME, organism-based; conditions: in vivo, 1 h
Nucleic Acid [17] = assay: Ratio of drug level in hypothalamus to cerebellum in Sprague-Dawley rat at 11 uCi, iv measured 2 mins post compound dose; type: ADME, organism-based; conditions: in vivo
Muscle tissue = assay: Biodistribution in Sprague-Dawley rat muscle assessed as compound level per organ at 11 uCi, iv measured 120 mins post compound dose; type: ADME, organism-based; conditions: in vivo, 2 h
Zone of skin [18] = assay: Biodistribution in Sprague-Dawley rat skin assessed as compound level per organ at 11 uCi, iv measured 2 mins post compound dose; type: ADME, organism-based; conditions: in vivo
Hippocampus [19] = assay: Biodistribution in Sprague-Dawley rat hippocampus at 11 uCi, iv measured 60 mins post compound dose; type: ADME, organism-based; conditions: in vivo, 1 h
Brain [20] = assay: Biodistribution in Sprague-Dawley rat brain at 11 uCi, iv measured 30 mins post compound dose; type: ADME, organism-based; conditions: in vivo, 0.5 h
Cerebellum [21] = assay: Biodistribution in Sprague-Dawley rat cerebellum at 11 uCi, iv measured 30 mins post compound dose; type: ADME, organism-based; conditions: in vivo, 0.5 h
Heart [22] = assay: Biodistribution in Sprague-Dawley rat heart assessed as compound level per organ at 11 uCi, iv measured 30 mins post compound dose; type: ADME, organism-based; conditions: in vivo, 0.5 h
Nucleic Acid [23] = assay: Ratio of drug level in hypothalamus to cerebellum in Sprague-Dawley rat at 11 uCi, iv measured 120 mins post compound dose; type: ADME, organism-based; conditions: in vivo, 2 h
Nucleic Acid [24] = assay: Ratio of drug level in cortex to cerebellum in Sprague-Dawley rat at 11 uCi, iv measured 120 mins post compound dose; type: ADME, organism-based; conditions: in vivo, 2 h
Spleen [25] = assay: Biodistribution in Sprague-Dawley rat spleen at 11 uCi, iv measured 30 mins post compound dose; type: ADME, organism-based; conditions: in vivo, 0.5 h
Nucleic Acid [26] = assay: Ratio of drug level in rest of brain region to cerebellum in Sprague-Dawley rat at 11 uCi, iv measured 2 mins post compound dose; type: ADME, organism-based; conditions: in vivo
Lung [27] = assay: Biodistribution in Sprague-Dawley rat lung assessed as compound level per organ at 11 uCi, iv measured 2 mins post compound dose; type: ADME, organism-based; conditions: in vivo
Spleen [28] = assay: Biodistribution in Sprague-Dawley rat spleen at 11 uCi, iv measured 2 mins post compound dose; type: ADME, organism-based; conditions: in vivo
Liver [29] = assay: Biodistribution in Sprague-Dawley rat liver assessed as compound level per organ at 11 uCi, iv measured 2 mins post compound dose; type: ADME, organism-based; conditions: in vivo
Nucleic Acid [30] = assay: Ratio of drug level in rest of brain region to cerebellum in Sprague-Dawley rat at 11 uCi, iv measured 120 mins post compound dose; type: ADME, organism-based; conditions: in vivo, 2 h
Nucleic Acid [31] = assay: Ratio of drug level in striatum to cerebellum in Sprague-Dawley rat at 11 uCi, iv measured 30 mins post compound dose; type: ADME, organism-based; conditions: in vivo, 0.5 h
Blood [32] = assay: Biodistribution in Sprague-Dawley rat blood at 11 uCi, iv measured 60 mins post compound dose; type: ADME, organism-based; conditions: in vivo, 1 h
Nucleic Acid [33] = assay: Ratio of drug level in rest of brain region to cerebellum in Sprague-Dawley rat at 11 uCi, iv measured 30 mins post compound dose; type: ADME, organism-based; conditions: in vivo, 0.5 h
Nucleic Acid [34] = assay: Ratio of drug level in striatum to cerebellum in Sprague-Dawley rat at 11 uCi, iv measured 120 mins post compound dose; type: ADME, organism-based; conditions: in vivo, 2 h
Blood [35] = assay: Biodistribution in Sprague-Dawley rat blood at 11 uCi, iv measured 120 mins post compound dose; type: ADME, organism-based; conditions: in vivo, 2 h
Zone of skin [36] = assay: Biodistribution in Sprague-Dawley rat skin assessed as compound level per organ at 11 uCi, iv measured 30 mins post compound dose; type: ADME, organism-based; conditions: in vivo, 0.5 h
Liver [37] = assay: Biodistribution in Sprague-Dawley rat liver at 11 uCi, iv measured 2 mins post compound dose; type: ADME, organism-based; conditions: in vivo
Zone of skin [38] = assay: Biodistribution in Sprague-Dawley rat skin at 11 uCi, iv measured 120 mins post compound dose; type: ADME, organism-based; conditions: in vivo, 2 h
Brain [39] = assay: Biodistribution in Sprague-Dawley rat rest of brain at 11 uCi, iv measured 2 mins post compound dose; type: ADME, organism-based; conditions: in vivo
Kidney [40] = assay: Biodistribution in Sprague-Dawley rat kidney assessed as compound level per organ at 11 uCi, iv measured 30 mins post compound dose; type: ADME, organism-based; conditions: in vivo, 0.5 h
Kidney [41] = assay: Biodistribution in Sprague-Dawley rat kidney at 11 uCi, iv measured 2 mins post compound dose; type: ADME, organism-based; conditions: in vivo
Zone of skin [42] = assay: Biodistribution in Sprague-Dawley rat skin at 11 uCi, iv measured 2 mins post compound dose; type: ADME, organism-based; conditions: in vivo
Spleen [43] = assay: Biodistribution in Sprague-Dawley rat spleen at 11 uCi, iv measured 60 mins post compound dose; type: ADME, organism-based; conditions: in vivo, 1 h
Zone of skin [44] = assay: Biodistribution in Sprague-Dawley rat skin at 11 uCi, iv measured 60 mins post compound dose; type: ADME, organism-based; conditions: in vivo, 1 h
Blood [45] = assay: Biodistribution in Sprague-Dawley rat blood at 11 uCi, iv measured 2 mins post compound dose; type: ADME, organism-based; conditions: in vivo
Bone [46] = assay: Biodistribution in Sprague-Dawley rat bone at 11 uCi, iv measured 30 mins post compound dose; type: ADME, organism-based, Bone element; conditions: in vivo, 0.5 h
Pancreas = assay: Biodistribution in Sprague-Dawley rat pancreas assessed as compound level per organ at 11 uCi, iv measured 120 mins post compound dose; type: ADME, organism-based; conditions: in vivo, 2 h
Kidney [47] = assay: Biodistribution in Sprague-Dawley rat kidney at 11 uCi, iv measured 60 mins post compound dose; type: ADME, organism-based; conditions: in vivo, 1 h
Heart [48] = assay: Biodistribution in Sprague-Dawley rat heart assessed as compound level per organ at 11 uCi, iv measured 60 mins post compound dose; type: ADME, organism-based; conditions: in vivo, 1 h

Drug uptake (Brain [1]): 1.21 % ID/g
Drug uptake (Bone [2]): 0.01 %ID
Ratio (Nucleic Acid [3]): 2.77
Drug uptake (Bone [4]): 0.03 %ID
Drug uptake (Lung [5]): 0.27 % ID/g
Drug uptake (Spleen [6]): 0.07 %ID
Drug uptake (Heart [7]): 1.46 % ID/g
Drug uptake (Heart [8]): 0.38 % ID/g
Ratio (Nucleic Acid [9]): 1.69
Drug uptake (Cerebellum [10]): 0.12 % ID/g
Drug uptake (Cortex): 1.39 % ID/g
Drug uptake (Lung [11]): 1.5 %ID
Drug uptake (Lung [12]): 0.41 %ID
Ratio (Nucleic Acid [13]): 1.83
Drug uptake (Bone [14]): 0.16 % ID/g
Drug uptake (Hippocampus [15]): 0.08 % ID/g
Drug uptake (Brain [16]): 0.13 % ID/g
Ratio (Nucleic Acid [17]): 1.02
Drug uptake (Muscle tissue): 5.45 %ID
Drug uptake (Zone of skin [18]): 8.86 %ID
Drug uptake (Hippocampus [19]): 0.21 % ID/g
Drug uptake (Brain [20]): 0.53 % ID/g
Drug uptake (Cerebellum [21]): 0.25 % ID/g
Drug uptake (Heart [22]): 0.28 %ID
Ratio (Nucleic Acid [23]): 1.93
Ratio (Nucleic Acid [24]): 1.24
Drug uptake (Spleen [25]): 0.55 % ID/g
Ratio (Nucleic Acid [26]): 0.75
Drug uptake (Lung [27]): 6.52 %ID
Drug uptake (Spleen [28]): 1.61 % ID/g
Drug uptake (Liver [29]): 9.42 %ID
Ratio (Nucleic Acid [30]): 1.18
Ratio (Nucleic Acid [31]): 3.13
Drug uptake (Blood [32]): 0.22 % ID/g
Ratio (Nucleic Acid [33]): 2.22
Ratio (Nucleic Acid [34]): 1.89
Drug uptake (Blood [35]): 0.19 % ID/g
Drug uptake (Zone of skin [36]): 9.38 %ID
Drug uptake (Liver [37]): 1.23 % ID/g
Drug uptake (Zone of skin [38]): 0.13 % ID/g
Drug uptake (Brain [39]): 1.14 % ID/g
Drug uptake (Kidney [40]): 2.66 %ID
Drug uptake (Kidney [41]): 2.6 % ID/g
Drug uptake (Zone of skin [42]): 0.28 % ID/g
Drug uptake (Spleen [43]): 0.22 % ID/g
Drug uptake (Zone of skin [44]): 0.2 % ID/g
Drug uptake (Blood [45]): 0.44 % ID/g
Drug uptake (Bone [46]): 0.4 % ID/g
Drug uptake (Pancreas): 0.06 %ID
Drug uptake (Kidney [47]): 0.72 % ID/g
Drug uptake (Heart [48]): 0.15 %ID
Compound: CN(C)Cc1cc([125I])ccc1Sc1ccccc1CO
